Read-outs that look alike come from different tables or passages of the source.
How the values were obtained:
[1] = tested on: wound after doxorubicin SC in swine; assay: Pilot study on swine, doxorubicin SC; format: in vivo; settings: 3 mg doxorubicin SC, not receiving ICRF-187
Experimental: (§1) A danish porker weighting approximately 30 kg was used. The animals were fully anesthesized and artificially ventilated during SC injection of 1 ml of anthracycline.

[2] = tested on: SC daunorubicin induced wounds in mice; settings: for AUC / DW / FW / TTW: Table A, pooled data
Experimental: The mice were euthanized after healing of all wounds.
The effect of various doses of ICRF-187 was investigated in Example 3.
Comparison of two concentrations of sc daunorubicin were compared with and without simultaneous treatment with ICRF-187 250 mg/kg.
ICRF-187 was administered at the same time as daunorubicin, 3 hours after, and 6 hours after, respectively. Saline served as control. The dose of daunorubicin was 3 mg/kg so and ICRF-187 was administered IP in a 250 mg/kg solution. Twenty-eight mice were used. The results are depicted in data sheet #6 and the mean AUCs are shown graphically in FIG. 5.
100 mg/kg ICRF-187 was injected into the subcutaneous papule produced by injected daunorubicin. This treatment was compared to intralesional saline control, IP saline control, and IP treatment with ICRF-187.
[…]. Seven experiments (n=6, 7, 7, 9, 9, 9, and 9) with 3 mg/kg daunorubicin SC plus saline IP at t=0 and seven experiments (n=6, 7, 7, 9, 9, 8, and 9) with 3 mg/kg daunorubicin SC plus 250 mg/kg ICRF-187 IP at t=0tin two experiments (n=9 and 4) the ICRF-187 doses were 62,5 mg/kg and 375 mg/kg IP, respectively, in two (n=7 and 9) the dose was 125 mg/kg. ICRF-187 250 mg/kg was administered IV in one (n=9).

[3] = tested on: wound after daunorubicin SC in swine; assay: Pilot study on swine, daunorubicin SC; format: in vivo; settings: 1 ml daunorubicin SC, untreated
Experimental: as §1

[4] = Example 3, daunorubicin 3 mg/kg sc + saline IP
[5] = Example 4, daunorubicin 1 mg/kg sc + saline IP
[6] = Example 4, daunorubicin 3 mg/kg sc + saline IP
[7] = Example 5, daunorubicin 1 mg/kg sc + saline IP
[8] = Example 5, daunorubicin 3 mg/kg sc + saline IP
[9] = Example 6, daunorubicin 3 mg/kg sc + saline IP
[10] = Example 7, daunorubicin 3 mg/kg sc + 0.05 ml saline IL
[11] = Example 7, daunorubicin 3 mg/kg sc + saline IP
[12] = daunorubicin 1 mg/kg SC + saline IP
[13] = daunorubicin 3 mg/kg SC + saline IP
[14] = daunorubicin 3 mg/kg SC + saline IP, listed as daunorubicin

Structure (SMILES): COc1cccc2c1C(=O)c1c(O)c3c(c(O)c1C2=O)C[C@@](O)(C(=O)CO)C[C@@H]3O[C@H]1C[C@H](N)[C@H](O)[C@H](C)O1 [Doxorubicin]
- wound appearance [1]: a wound appeared

Structure (SMILES): COc1cccc2c1C(=O)c1c(O)c3c(c(O)c1C2=O)C[C@@](O)(C(C)=O)C[C@@H]3O[C@H]1C[C@H](N)[C@H](O)[C@H](C)O1 [Daunorubicin]
- Mean AUC [2, 4]: 764 mm^2 × days
- Mean DWw ± SEM [2, 4]: 29.8 ± 0.5 days
- Mean TTWw ± SEM [2, 4]: 4.8 ± 0.4 days
- Mean AUC [2, 5]: 365 mm^2 × days
- Mean DWw ± SEM [2, 5]: 25.5 ± 1.1 days
- Mean TTWw ± SEM [2, 5]: 7.3 ± 1.6 days
- Mean AUC [2, 6]: 1240 mm^2 × days
- Mean DWw ± SEM [2, 6]: 29.0 ± 0.9 days
- Mean TTWw ± SEM [2, 6]: 4.8 ± 0.3 days
- Mean AUC [2, 7]: 184 mm^2 × days
- Mean DWw ± SEM [2, 7]: 20.5 ± 1.3 days
- Mean TTWw ± SEM [2, 7]: 8.5 ± 0.7 days
- Mean AUC [2, 8]: 955 mm^2 × days
- Mean DWw ± SEM [2, 8]: 25.7 ± 0.7 days
- Mean TTWw ± SEM [2, 8]: 5.1 ± 0.2 days
- Mean AUC [2, 9]: 1398 mm^2 × days
- Mean DWw ± SEM [2, 9]: 27.4 ± 0.5 days
- Mean TTWw ± SEM [2, 9]: 5.0 ± 0.4 days
- Mean AUC [2, 10]: 1290 mm^2 × days
- Mean DWw ± SEM [2, 10]: 24.4 ± 0.6 days
- Mean TTWw ± SEM [2, 10]: 6.2 ± 0.3 days
- Mean AUC [2, 11]: 1144 mm^2 × days
- Mean DWw ± SEM [2, 11]: 26.9 ± 0.7 days
- Mean TTWw ± SEM [2, 11]: 6.0 ± 0.3 days
- AUC [2, 12]: 263 (± 56) mm^2×days
- DW [2, 12]: 22.6 (± 1.1) days
- FW [2, 12]: 88%
- TTW [2, 12]: 6.9 (± 0.7) days
- AUC [2, 13]: 1260 (± 72) mm^2×days
- DW [2, 13]: 26.6 (± 0.3) days
- FW [2, 13]: 96%
- TTW [2, 13]: 5.5 (± 0.2) days
- DW [2, 14]: 26.6 days
- TTW [2, 14]: 5.5 days
- wound appearance [3]: a large wound appeared

From patent US6727253B2, “Treatment of accidental extravasation of anthracyclines” (Antianthra APS, priority 1999, dated 2004)
